Non-standard residues stand in square brackets, D forms with d. Residues, ends and D or L forms follow the SMILES beside them. No end group written: not given here. *: point of attachment. Fluorescein(5-Mal) = O=C1OC2(c3ccc(O)cc3Oc3cc(O)ccc32)c2ccc(N3C(=O)CC(*)C3=O)cc21; 5FAM = O=C1OC2(c3ccc(O)cc3Oc3cc(O)ccc32)c2ccc(C(=O)*)cc21; Nle = CCCC[C@H](N)C(=O)O
How the values were obtained:
[1] = target: T1, BsGpsB1-68Lys32Glu (Bacillus subtilis, UniProt P0CI74, K32E); assay: Fluorescence polarisation binding to BsGpsB1-68Lys32Glu; conditions: FP, relative to wild-type LmPBPA1 peptide
T1 construct: His6 (N, cleaved yes); made in house; host or cells: E. coli BL21(DE3)
T1 sequence (P0CI74 1-68 K32E): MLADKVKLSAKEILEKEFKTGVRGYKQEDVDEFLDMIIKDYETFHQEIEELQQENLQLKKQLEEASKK
From the text: (§1) 75 the BsGpsB5-64:BsPBP11-17 complex.

[2] = test system: LmGpsB; assay: BACTH (bacterial two-hybrid) interaction with LmGpsB; format: cell-based, Listeria monocytogenes; conditions: E. coli BTH101, 30 °C, photographed after 24 and 48 h; LmPBPA1 variants as T25-PBPA1ΔGT-TP
From the text: The BACTH system[63] was used for analysis of protein:protein interactions. First, LmGpsB was screened against LmPBPA1 (lmo1892) variants to identify residues in LmPBPA1 that are important for binding LmGpsB. To facilitate screening, we used a T25 fragment of Bordetella pertussis adenylate cyclase that had been fused to the N-terminal 91 amino acids of LmPBPA1 to create a T25-LmPBPA1 fusion containing the N-terminal cytoplasmic mini-domain and the transmembrane helix, but lacking lacking the extracellular glycosyltransferase and transpeptidase domains (T25-PBPA1ΔGT-TP) in plasmid pSH437[21]. LmPBPA1 residues that corresponded to the BsGpsB binding motif of BsPBP1 (Thr7, Arg8, Tyr11, Arg12) and additional positively charged amino acids (Lys14, Lys20, Lys21, Lys22, Lys25, Arg26, Lys28 and Arg29) in T25-PBP A1ΔGT-TP were replaced with alanine prior to screening against GpsB-T18. The pSH437 plasmid was mutated by Quikchange mutagenesis using the primer pairs SHW744/SHW754 (T7A, pSH485), SHW746/SHW747 (R8A, pSH486), SHW755/SHW756 (Y11A, pSH487), SHW748/SHW749 (R12A, pSH488), SHW757/SHW758 (K14A, pSH489), SHW759/SHW760 (K20A, pSH490), SHW761/SHW762 (K21A, pSH491), SHW763/SHW764 (K22A, pSH492), SHW765/SHW766 (K25A, pSH493), SHW767/SHW768 (R26A, pSH494), SHW769/SHW770 (K28A, pSH495) and SHW771/SHW772 (R29A, pSH496).
pJR164 and pJR169 were constructed by cloning sepF (primers JR334/JR335 and XbaI/KpnI digestion) into pKT25 and p25-N, respectively. pJR165 and pJR170 were generated by cloning ezrA into pKT25 and p25-N, respectively, using primers JR339/JR340 and XbaI/KpnI for digestion. pJR172 and pJR174 were obtained by cloning zapA into pKT25 and p25-N, respectively, using primers JR337/JR338 and PstI/KpnI. pJR213 was constructed by amplification of divIB with primers JR353/JR354 and cloning into pKT25 using XbaI/KpnI. pJR214 was generated by PCR amplification of divIC with primers JR355/JR356 and cloning into pKT25 using XbaI/KpnI. mreBH was amplified by PCR using oligonucleotides JR368/JR369 and cloned into pKT25 and p25-N using XbaI/KpnI, resulting in pJR233 and pJR236, respectively. pJR242 and pJR243 were obtained by cloning mreC into pKT25 and p25-N, respectively, using primers JR364/JR365 and PstI/KpnI digestion. pbpA2 was cloned into pKT25 using oligonucleotides SHW153/SHW154 and XbaI/KpnI to create pJR250. pbpB1 was amplified with primers SHW157/SHW158 and cloned with SmaI/EcoRI into pKT25, yielding pSH236. pbpB2 was amplified with primers SHW155/SHW156 and cloned into pKT25 after PstI/BamHI digestion, yielding plasmid pSH235. pbpB3 was amplified using primers SHW159/160 and cloned by PstI/BamHI digestion into pKT25, resulting in pSH237. Finally, pSH484 was obtained by removing the N-terminal domain from gpsB present on plasmid pSH226 in a PCR with the primer pair SHW752/SHW753.
Plasmids encoding the respective genes fused to the N- or C-termini of the T18- or the T25-fragment of the Bordetella pertussis adenylate cyclase were co-transformed into E. coli BTH101. Transformants were selected on LB agar plates containing ampicillin (100 µg^−1mL^−1), kanamycin (50 µg^−1mL^−1), X-Gal (40 µg^−1mL^−1) and IPTG (0.1 mM) and photographs were taken after 24 and 48h growth at 30 °C. The BACTH experiments in Fig. 2b and Supplementary Figure 3C, D were repeated at least twice.

[3] = target: Fluorescein-LmPBPA11-20 wildtype (L. monocytogenes EGD-e); assay: fluorescence polarisation
[4] = target: T2, BsGpsB1-68Tyr25Phe (Bacillus subtilis, UniProt P0CI74, Y25F); assay: Fluorescence polarisation binding to BsGpsB1-68Tyr25Phe; conditions: FP, BsGpsB Tyr25Phe relative to wild-type BsGpsB1-68
T2 construct: correspond to BsGpsB1-68^Asp31Ala and BsGpsB1-68^Tyr25Phe mutants, respectively; His6 (N, cleaved yes); made in house; host or cells: E. coli BL21(DE3)
T2 sequence (P0CI74 1-68 Y25F): as the sequence (P0CI74 1-68 K32E) above, with Y25F, E32K counted along it
From the text: as §1

[5] = target: T3, BsGpsB1-68Asp31Ala (Bacillus subtilis, UniProt P0CI74, D31A); assay: Fluorescence polarisation binding to BsGpsB1-68Asp31Ala; conditions: FP, BsGpsB Asp31Ala relative to wild-type BsGpsB1-68
T3 construct: Glu17Ala, Asp31Ala and Asp35Ala mutations were introduced to the BsGpsB1-68 expression construct plasmid; His6 (N, cleaved yes); made in house; host or cells: E. coli BL21(DE3)
T3 sequence (P0CI74 1-68 D31A): as the sequence (P0CI74 1-68 K32E) above, with D31A, E32K counted along it
From the text: as §1

[6] = target: T4, BsGpsB_(1-68) (B. subtilis, UniProt P0CI74 1-68); assay: fluorescence polarisation; GpsB protein titrated into fluorescently labelled peptide; 10 mM Tris.HCl pH 8.0, 250 mM NaCl, 0.1% reduced Triton X-100; fit to a 1:1 interaction model; conditions: both partners purified
T4 construct: GpsB, Bacillus subtilis, residues 1-68; also called N-terminal domain of BsGpsB; source: E. coli, purified (Ni-NTA, thrombin, size exclusion)
T4 sequence (looked up): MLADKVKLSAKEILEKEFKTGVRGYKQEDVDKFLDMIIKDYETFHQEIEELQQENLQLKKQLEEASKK

[7] = target: full-length BsPBP1; assay: SPR binding to immobilised full-length BsPBP1; set-up: species or system Bacillus subtilis; conditions: SPR, PBP1-coated chip; full-length GpsB data fit 1:1 only over limited concentration range (avidity), BsGpsB1-68 supports 1:1; peer review file; read-out: affinity / Kd by SPR
From the text: BsPBP1 and BsPBP1_17-914 were immobilised on the surface of a CM5 chip (GE Healthcare). For the BsPBP1/YrrSΔ13-16 titration 800 RUs of BsPBP1 were immobilised on the chip surface; for the BsPBP1/BsGpsB titration 1200 RUs of BsPBP1 were immobilised. YrrSΔ13-16, which lacks residues 13–16 in the cytoplasmic domain, was used in these experiments to minimise non-specific interactions with the chip matrix; binding of YrrSΔ13-16 to the reference surface was negligible and the deletion of residues 13–16 leaves the GpsB-binding motif intact. The YrrSΔ13-16 titration was carried out in single-cycle mode, without regenerating the surface between successive injections of protein, because harsh reagents were necessary for full surface regeneration.

CSCC[C@H](NC(=O)[C@H](CO)NC(=O)CN)C(=O)N[C@@H](C)C(=O)N[C@@H](CC(=O)O)C(=O)N[C@@H](CCCCN)C(=O)N1CCC[C@H]1C(=O)N[C@@H](CCC(N)=O)C(=O)N[C@H](C(=O)N[C@@H](C)C(=O)N[C@@H](CO)C(=O)N[C@@H](CCC(N)=O)C(=O)N[C@@H](Cc1ccc(O)cc1)C(=O)N[C@@H](CCCNC(=N)N)C(=O)N[C@@H](CC(N)=O)C(=O)N[C@@H](CCCCN)C(=O)N[C@@H](CCC(N)=O)C(=O)N[C@@H](CO)C(=O)NCC(=O)NCC(=O)N[C@@H](CSC1CC(=O)N(c2ccc3c(c2)C(=O)OC32c3ccc(O)cc3Oc3cc(O)ccc32)C1=O)C(=O)N[C@@H](CCCCN)C(=O)O)[C@@H](C)O (stereo partly drawn) [Fluorescein-LmPBPA11-20 Arg8Ala] (H-GSMADKPQTASQYRNKQSGGC(Fluorescein(5-Mal))K-OH; N-terminus and C-terminus assumed)
reduction in affinity for BsGpsB1-68Lys32Glu [1]: > 15 fold | BACTH interaction with LmGpsB [2]: significant negative impact

CSCC[C@H](NC(=O)[C@H](CO)NC(=O)CN)C(=O)N[C@@H](C)C(=O)N[C@@H](CC(=O)O)C(=O)N[C@@H](CCCCN)C(=O)N1CCC[C@H]1C(=O)N[C@@H](CCC(N)=O)C(=O)N[C@H](C(=O)N[C@@H](CCCNC(=N)N)C(=O)N[C@@H](CO)C(=O)N[C@@H](CCC(N)=O)C(=O)N[C@@H](Cc1ccc(O)cc1)C(=O)N[C@@H](C)C(=O)N[C@@H](CC(N)=O)C(=O)N[C@@H](CCCCN)C(=O)N[C@@H](CCC(N)=O)C(=O)N[C@@H](CO)C(=O)NCC(=O)NCC(=O)N[C@@H](CSC1CC(=O)N(c2ccc3c(c2)C(=O)OC32c3ccc(O)cc3Oc3cc(O)ccc32)C1=O)C(=O)N[C@@H](CCCCN)C(=O)O)[C@@H](C)O (stereo partly drawn) [Fluorescein-LmPBPA11-20 Arg12Ala] (H-GSMADKPQTRSQYANKQSGGC(Fluorescein(5-Mal))K-OH; N-terminus and C-terminus assumed)
reduction in affinity for BsGpsB1-68Lys32Glu [1]: ~ 4 fold | BACTH interaction with LmGpsB [2]: significant negative impact

LmGpsB1-73 (from UniProt Q8Y614 1-73) (domain or fragment)
Kd [3]: 200 µM

CSCC[C@H](NC(=O)[C@H](CO)NC(=O)CN)C(=O)NCC(=O)N[C@@H](CC(N)=O)C(=O)N[C@@H](CC(N)=O)C(=O)N[C@@H](CCC(N)=O)C(=O)N[C@@H](CO)C(=O)N[C@@H](CCCNC(=N)N)C(=O)N[C@@H](Cc1ccc(O)cc1)C(=O)N[C@@H](CCC(=O)O)C(=O)N[C@@H](CC(N)=O)C(=O)N[C@@H](CCCNC(=N)N)C(=O)N[C@@H](CC(=O)O)C(=O)N[C@@H](CCCCN)C(=O)N[C@@H](CCCNC(=N)N)C(=O)N[C@@H](CCCNC(=N)N)C(=O)N[C@@H](CCCCN)C(=O)N[C@@H](C)C(=O)N[C@@H](CC(N)=O)C(=O)N[C@@H](CSC1CC(=O)N(c2ccc3c(c2)C(=O)OC32c3ccc(O)cc3Oc3cc(O)ccc32)C1=O)C(=O)NCC(=O)O (stereo partly drawn) [Fluoroescein-BsYrrS1-18] (H-GSMGNNQSRYENRDKRRKANC(Fluorescein(5-Mal))G-OH; N-terminus and C-terminus assumed)
reduction in affinity on GpsB mutation [4]: 7 fold | reduction in affinity on GpsB mutation [5]: 7 fold

CCCC[C@H](NC(=O)c1ccc2c(c1)C(=O)OC21c2ccc(O)cc2Oc2cc(O)ccc21)C(=O)N[C@H](C(=O)N[C@@H](CC(N)=O)C(=O)N[C@@H](CCCC)C(=O)N[C@@H](CO)C(=O)N[C@@H](CCCNC(=N)N)C(=O)N[C@H](C(=O)N[C@@H](CCC(=O)O)C(=O)N[C@@H](CCCNC(=N)N)C(=O)N[C@@H](CCCNC(=N)N)C(=O)N[C@@H](CCCCN)C(=O)N[C@@H](C)C(=O)N[C@@H](CCC(N)=O)C(=O)N[C@@H](CC(N)=O)C(=O)N[C@@H](CC(C)C)C(=O)N[C@@H](Cc1ccc(O)cc1)C(=O)N[C@@H](CCC(=O)O)C(=O)N[C@@H](CC(=O)O)C(=O)N[C@@H](CCC(N)=O)C(=O)N[C@@H](CC(N)=O)C(=O)N[C@@H](C)C(=O)O)C(C)C)[C@@H](C)O [Fluoroescein-BsYpbE1-21] (5FAM-[Nle]TN[Nle]SRVERRKAQNLYEDQNA-OH; N-terminus and C-terminus assumed)
reduction in affinity on GpsB mutation [4]: ~ 40 fold | reduction in affinity on GpsB mutation [5]: ~ 40 fold

B1: BsPBP1_(1-32)^Arg28Ala, TAMRA-labelled at position 16 (peptide, UniProt P39793 1-32, looked up)
peptide: MSDQFNSREARRKANC(TAMRA‑maleimide)KSSPSPKKGKKAKKGG
notes: PBP1, Bacillus subtilis, residues 1-32; source: E. coli, His-tagged MBP fusion purified (Ni-NTA), labelled, TEV-cleaved, ultrafiltration
binding result [6]: binds

B2: BsYrrS_(1-18), fluorescein-labelled (peptide, UniProt O32031 1-18, looked up)
peptide: MSNNQSRYENRDKRRKAN
modifications: also: fluorescein label, position not given here
notes: YrrS, Bacillus subtilis, residues 1-18; also called entire cytoplasmic mini-domain of BsYrrS
Kd [6]: 430 µM

B3: BsGpsB1-68: N-terminal domain of B. subtilis GpsB (protein)
chain: MLADKVKLSAKEILEKEFKTGVRGYKQEDVDKFLDMIIKDYETFHQEIEELQQENLQLKKQLEEASKK
modifications: left off: His6, N-terminal, cleaved
notes: N-terminal domain of B. subtilis GpsB
Kd [7]: 40 µM

Source: PMC6335420, “The cell cycle regulator GpsB functions as cytosolic adaptor for multiple cell wall enzymes” (Nature Communications, 2019)
